Each block holds one molecule with its values, some of them ahead of it.
Assay: in vivo
Protocol: […] Blood was collected by serial bleeding at 0.16 h, 0.5 h, 1 h, 2 h, 4 h, 6 h, 8 h and 24 h in heparinized tubes. Blood samples were centrifuged at 10,000 rpm for 10 min. at 4° C. to obtain the plasma, which were aspirated into separate labeled tubes and stored at −80° C. 400 ng/ml of Verapmil in acetonitrile was used as the drug extraction solvent for extracting drug from plasma. Extraction solvent was added to plasma was vortexed and shaken on shaker for 10 minutes, centrifuged at 10000 rpm for 10 minutes at 4° C. Supernatant was kept for analysis.
Acetonitrile and plasma calibration curves were generated and percentage of drug recovery from plasma determined. Quantitative analysis was done by liquid chromatography tandem mass spectrometry using multiple reaction monitoring (API3000 LC-MS/MS). Cmax, Tmax, AUC and t1/2 were calculated using Graph Pad PRISM version 5.04.

Compound: CCc1c2c(nc3ccc(OCOC(=O)c4cccnc4)cc13)-c1cc3c(c(=O)n1C2)COC(=O)[C@]3(O)CC [Compound 305, (S)-((4,11-diethyl-4-hydroxy-3,14-dioxo-3,4,12,14-tetrahydro-1H-pyrano[3′,4′:6,7]indolizino[1,2-b]quinolin-9-yl)oxy)methyl nicotinate]
PK Value (AUC) (dosage 10.00 mpk, vehicle PEG400): BDL

Compound: CCc1c2c(nc3ccc(OCOC(=O)c4ccc[n+](COC(=O)NC(C)C)c4)cc13)-c1cc3c(c(=O)n1C2)COC(=O)[C@]3(O)CC.[I-] [Compound 306, (S)-3-((((4,11-diethyl-4-hydroxy-3,14-dioxo-3,4,12,14-tetrahydro-1H-pyrano[3′,4′:6,7]indolizino[1,2-b]quinolin-9-yl)oxy)methoxy)carbonyl)-1-(((isopropylcarbamoyl)oxy)methyl)pyridin-1-ium iodide]
PK Value (AUC) (dosage 3.00 mpk, vehicle PEG400): BDL

AUC (female, Sprague Dawley, rat, plasma, po, 10 mg/kg): 0.186 µM·h
Compound: CC(=O)O[C@H]1C(=O)[C@@]2(C)[C@H]([C@H](OC(=O)c3ccccc3)[C@@]3(O)CC1=C(C)[C@@H](OC(=O)[C@H](O)[C@@H](NC(=O)c1ccccc1)c1ccccc1)C3)[C@]1(OC(C)=O)CO[C@@H]1C[C@@H]2O [Compound 4114, (2α,4α,5β,7β,10β,13α)-4,10-bis(acetyloxy)-13-{[(2R,3S)-3-(benzoylamino)-2-hydroxy-3-phenylpropanoyl]oxy}-1,7-dihydroxy-9-oxo-5,20-epoxytax-11-en-2-yl benzoate]

PK Value (AUC) (rat, in vivo): BDL
Compound: CCc1c2c(nc3ccc(O)cc13)-c1cc3c(c(=O)n1C2)COC(=O)[C@]3(O)CC [Compound 4150, (S)-4,11-diethyl-4,9-dihydroxy-1H-pyrano[3′,4′:6,7]indolizino[1,2-b]quinoline-3,14(4H,12H)-dione]

Source: patent US9359376B2, “Substituted methylformyl reagents and method of using same to modify physicochemical and/or pharmacokinetic properties of compounds” (priority 2011, dated 2016)
